The subject of one series is KB. Briefly: Cytotoxicity against human KB cells. The series is classed as functional.
Series [1] is described as follows: Cytotoxicity against african green monkey Vero cells. The series is classed as cell-based. To be noted: chlorocebus sabaeus, read-out: ED50 (the source's name).

In the series with KB, `CCCCCC[C@H](O)CCC[C@H](O)[C@H]1CC[C@@H]([C@H]2CC[C@H]([C@H](O)CC[C@H](O)CCCCCCCCCC3=C[C@H](C)OC3=O)O2)O1` [SALZMANIN] showed an ED50 of 0.1 ×10⁻⁴ ug/ml. In series [1], the CC50 was above 0.01 µg/mL. As to `CCCCCC[C@H](O)CCC[C@H](O)[C@H]1CC[C@H]([C@H]2CC[C@H]([C@H](O)CCCCCCCCCCCCC3=C[C@H](C)OC3=O)O2)O1` [SQUAMOCIN], in the series on KB, the ED50 is given as 4 ×10⁻⁴ ug/ml. For the compound `CC[C@]1(O)C[C@@H]2CN(CCc3c([nH]c4ccccc34)[C@@](C(=O)OC)(c3cc4c(cc3OC)N(C)[C@H]3[C@@](O)(C(=O)OC)[C@H](OC(C)=O)[C@]5(CC)C=CCN6CC[C@]43[C@@H]65)C2)C1` [VINBLASTINE], the ED50 in the series with KB was determined as 0.1 ×10⁻⁴ ug/ml.

For the origin of these results see ChEMBL document CHEMBL1141845, “A new bistetrahydrofuran acetogenin from the roots of Annona salzmanii” (J Nat Prod, 1999).
